Source: US6558664B1, “Chondrocyte cell-lines” (Cell Factors plc, priority 1994, dated 2003)

Test system: chondrocyte cell-lines cloned from foetal femur
Experiment: Von Kossa staining of calcium mineralisation in monolayer cultures of immortalised foetal femur chondrocyte cell-lines
Type: cell-based, human
Conditions: three chondrocyte clones incubated at the oncogene's non-permissive temperature (39° C.) in the presence of 1,25(OH)2D3; in its absence cells do not actively mineralise calcium; FIG. 5
Procedure: Foetal rib or femur tissue was taken at 7-9 weeks of gestation and placed in tissue culture flasks (Costar Limited, UK) in Eagle's minimum essential medium (Gibco Co Limited, UK) containing antibiotics and L-glutamine as well as 10% heat in activated foetal bovine serum. Cultured cells were maintained in a humidified atmosphere at 5% CO2 and 37° C. and medium changed at regular intervals (2-3 days). As is usual for primary cultures of resected tissue, cells within the sample move out from the body of the tissue, adhere to the flask surface, and replicate, potentially, to cover the whole surface of the tissue culture dish. After an initial period of, say, 2 weeks in primary culture. The cell population was transfected with a temperature sensitive mutant of the simium virus-40 derived large tumour (T) antigen using retroviral transduction.
In short, amphotropically packaged retroviral particles comprising this construct and a resistance marker to geneticin, G418 (kindly donated by Dr M O'Hare, Institute of Cancer Research, Royal Marsden Hospital, Lincoln's Inn, Sutton, Surrey, alternatively, essentially the same construct expressing a temperature sensitive mutant of the SV40-T oncogene was kindly donated by Professor Phil Gaillimore, CRC Laboratories, University of Birmingham, UK) was added to the medium together with polybrene (Sigma Chemicals) to a final concentration of 0.8 mg/ml. […]

C=C1/C(=C\C=C2/CCC[C@]3(C)[C@@H]([C@H](C)CCCC(C)(C)O)CC[C@@H]23)C[C@@H](O)C[C@@H]1O [1,25(OH)2D3]
calcium mineralisation (Von Kossa staining): each clone actively mineralises calcium
